Test results: US10280198B2, “Therapeutic agents for reducing parathyroid hormone levels” (KAI PHARMACEUTICALS, INC., priority 2009, dated 2019)
pEC50: −log10 of the molar value. Square brackets hold non-standard residues; d marks the D form. Peptide text beside a SMILES is read from it.

How the values were obtained:
plasma histamine = conditions: rat
Procedure: For the in vivo evaluation of histamine release, compounds were dosed in isoflurane-anesthetized normal rats at 2 mg/kg by IV bolus (administered over less than one minute). Plasma histamine was measured 5 minutes after compound administration (Cayman histamine EIA #589651).

[1] = test system: rat peritoneal mast cells; assay: In vitro histamine induction in rat peritoneal mast cells; format: cell-based
Outline: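 Mast cells from peritoneal lavage of Sprague Dawley rats were incubated with compound at 10 μM for 15 min at 37 °C in HBSS + 25 mM HEPES pH 7.4. Supernatant histamine measured by EIA; response expressed as fold change versus pre-incubation levels.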

plasma PTH = assay: In vivo PTH lowering after IV bolus in isoflurane-anesthetized normal Sprague Dawley rats; set-up: species or system rat; conditions: for % PTH reduction of baseline at 1 hour post IV administration of 0.5 mg/kg compound: isoflurane-anesthetized normal rats, 0.5 mg/kg IV; for 0.5 mg/kg IV bolus % PTH AUC of saline control: normal rats, AUC 1-4 h
Outline: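 Peptides were given as a 0.5 mg/kg IV bolus to normal Sprague Dawley rats kept under isoflurane throughout, with saline bolus controls.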

[2] = biological target: T1, human calcium-sensing receptor (CaSR) (Homo sapiens, UniProt P41180); assay: In vitro cell assay in HEK-293 expressing the human calcium-sensing receptor (IP1 production); format: cell-based; conditions: Table 5; IP1 production in HEK293 cells expressing human CaSR, eight concentrations in duplicate; read-out: EC50 in CaSR in vitro assay
T1 construct: expressed in transfected cells; host or cells: HEK 293T cells, transiently transfected (lipofectamine 2000); in some cases HEK293 cells stably transfected
T1 sequence (P41180 20-1078): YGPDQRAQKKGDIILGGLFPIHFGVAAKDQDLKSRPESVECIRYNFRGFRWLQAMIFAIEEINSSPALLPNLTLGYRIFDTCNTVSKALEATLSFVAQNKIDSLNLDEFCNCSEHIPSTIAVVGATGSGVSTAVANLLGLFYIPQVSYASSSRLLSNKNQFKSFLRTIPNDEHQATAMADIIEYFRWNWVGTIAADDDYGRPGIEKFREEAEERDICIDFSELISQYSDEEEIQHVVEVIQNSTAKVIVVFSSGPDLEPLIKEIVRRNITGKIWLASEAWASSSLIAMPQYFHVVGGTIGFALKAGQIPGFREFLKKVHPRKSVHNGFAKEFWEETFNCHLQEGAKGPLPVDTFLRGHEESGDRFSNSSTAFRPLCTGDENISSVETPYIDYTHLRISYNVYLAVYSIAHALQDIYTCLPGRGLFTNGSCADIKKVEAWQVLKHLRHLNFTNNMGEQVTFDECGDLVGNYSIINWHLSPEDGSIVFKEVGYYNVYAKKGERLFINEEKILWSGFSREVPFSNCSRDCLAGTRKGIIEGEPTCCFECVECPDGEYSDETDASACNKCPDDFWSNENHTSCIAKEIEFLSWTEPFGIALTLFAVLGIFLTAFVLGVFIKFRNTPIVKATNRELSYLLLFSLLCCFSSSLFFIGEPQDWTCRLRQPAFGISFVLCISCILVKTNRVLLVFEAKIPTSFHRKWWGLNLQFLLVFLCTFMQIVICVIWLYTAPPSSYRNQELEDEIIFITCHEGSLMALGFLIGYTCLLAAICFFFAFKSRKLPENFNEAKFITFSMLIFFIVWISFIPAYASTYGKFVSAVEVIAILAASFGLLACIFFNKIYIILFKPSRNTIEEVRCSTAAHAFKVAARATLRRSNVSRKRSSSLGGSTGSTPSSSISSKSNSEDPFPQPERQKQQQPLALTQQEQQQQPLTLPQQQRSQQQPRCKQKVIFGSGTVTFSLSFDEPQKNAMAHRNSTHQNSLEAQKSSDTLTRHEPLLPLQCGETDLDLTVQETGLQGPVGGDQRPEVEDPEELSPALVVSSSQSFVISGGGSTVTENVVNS
Procedure: The activity of a variety of peptides and conjugates was tested against the human CaSR. These studies were conducted by measuring IP1 production in HEK293 cells that express the human CaSR. Each peptide was tested in eight different concentrations, in duplicates, to establish a dose response curve. Curve fitting was performed using GraphPad Prism. In Table 5, and throughout the specification, residues provided in capital letters are L-amino acids, while lower case letters indicate D-amino acids. “Ac” indicates an acetyl capping group, “NH2” indicates an amide capping group, “Ac-bAla” is an acetylated beta-alanine, “GSH” indicates reduced glutathione, “GS” indicates oxidized glutathione, “PEG” refers to polyethylene glycol, “PEG2” and “PEGS” refer to polyethylene glycol moieties of 2 kDa and 5 kDa, respectively, and “Mpa” refers to mercaptopropionic acid.
The day after, these cells were transfected with human CaSR receptor using lipofectamine 2000 transfection reagent 24 hrs post transfection, cells were seeded in 384 well plates at 8,000 cells/well. […] In some cases, EC50 values were determined by measuring inositol monophosphate production in the HEK293 cells, stably transfected with the human calcium-sensing receptor (see Table 1).
Cells were incubated with compounds at various concentrations (1 mM or 300 μM as the highest and further ½ log serial dilutions) at 37° C. for 1.5 hrs before reaction termination. […] In brief, incubation with the compound was terminated by sequentially adding D2 labeled-IP1 and cryptate-labeled anti-IP1 in lysis buffer and further incubating at room temperature for 60 minutes. […] Non-transfected 293 cells were used as negative control.
IP1 concentrations were calculated from standard curves (generated with Graph Pad Prism ver. 4) using known concentrations of IP1 standards.

Row | Structure (SMILES) | Histamine response in vivo Fold change from pre-dose levels 5′ post injection 2 mg/kg IV bolus (plasma histamine) | Histamine in vitro Fold change of non-treated at 10 uM [1] | % PTH reduction of baseline at 1 hour post IV administration of 0.5 mg/kg compound (plasma PTH; Table 2) | 0.5 mg/kg IV bolus % PTH AUC of saline control (plasma PTH; Table 2) | pEC50 [2] | 0.5 mg/kg IV bolus % PTH AUC of saline control (plasma PTH; Table 6)
1 | CC(=O)N[C@H](CS)C(=O)N[C@H](C)C(=O)N[C@H](CCCNC(=N)N)C(=O)N[C@H](CCCNC(=N)N)C(=O)N[C@H](CCCNC(=N)N)C(=O)N[C@H](CCCNC(=N)N)C(=O)N[C@H](C)C(N)=O [SEQ ID NO: 19, Ac-carrrra-NH2] (Ac-[dC][dA][dR][dR][dR][dR][dA]-NH2) | 0.9 fold | 1.3 fold | 29% | 72% | – | –
2 | CC(=O)N[C@H](CS)C(=O)N[C@H](CCCNC(=N)N)C(=O)N[C@H](C)C(=O)N[C@H](CCCNC(=N)N)C(=O)N[C@H](CCCNC(=N)N)C(=O)N[C@H](CCCNC(=N)N)C(=O)N[C@H](C)C(N)=O [SEQ ID NO: 20, Ac-crarrra-NH2] (Ac-[dC][dR][dA][dR][dR][dR][dA]-NH2) | 1.0 fold | 1.1 fold | 45% | 69% | – | –
3 | CC(=O)N[C@H](CS)C(=O)N[C@H](CCCNC(=N)N)C(=O)N[C@H](C)C(=O)N[C@H](CCCNC(=N)N)C(=O)N[C@H](CCCNC(=N)N)C(=O)N[C@H](C)C(=O)N[C@H](CCCNC(=N)N)C(N)=O [SEQ ID NO: 23, Ac-crarrar-NH2] (Ac-[dC][dR][dA][dR][dR][dA][dR]-NH2) | 0.8 fold | 1.5 fold | 0% | 43% | – | –
4 | CC(=O)N[C@H](CS)C(=O)N[C@H](CCCNC(=N)N)C(=O)N[C@H](CCCNC(=N)N)C(=O)N[C@H](C)C(=O)N[C@H](CCCNC(=N)N)C(=O)N[C@H](C)C(=O)N[C@H](CCCNC(=N)N)C(N)=O [SEQ ID NO: 25, Ac-crrarar-NH2] (Ac-[dC][dR][dR][dA][dR][dA][dR]-NH2) | 0.9 fold | – | – | – | – | –
5 | CC(=O)N[C@H](CS)C(=O)N[C@H](C)C(=O)N[C@H](CCCNC(=N)N)C(=O)N[C@H](CCCNC(=N)N)C(=O)N[C@H](CCCNC(=N)N)C(=O)N[C@H](CCC(=O)O)C(=O)N[C@H](CCCNC(=N)N)C(N)=O [SEQ ID NO: 68, Ac-carrrer-NH2] (Ac-[dC][dA][dR][dR][dR][dE][dR]-NH2) | – | 1.3 fold | – | – | 4.21 | 81%
